Test systems include MDA-N; SF-539 CNS; MALME-3M melanoma; BT-549 breast; COLO 205 colon; T-47D breast; RXF 393 renal; RPMI-8226 leukemia; NCI-H522 lung; SK-OV-3 ovarian; LOX IMVI melanoma; NCI-H226 lung; NCI-H23 lung.
What all share (assay): NCI tumour cell line growth inhibition, 48 h

The structures appear in SMILES notation.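 Protocol summary: plate cells (96-well), add compound at 5 concentrations, incubate 48 h, interpolate endpoints linearly. GI50 marks 50% less growth. The concentration for full growth arrest is given as TGI.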 A value given as a limit tells only on which side of the number the result lay.

For `CCOC(=O)C1=C(c2ccccc2)C12N(Cc1ccccc1)C(=O)C2(c1ccccc1)c1ccccc1` (configuration not stated), the TGI in the experiment with MDA-N is greater than 100 µM; in the experiment on SF-539 CNS it was greater than 100 µM; in the experiment with MALME-3M melanoma, greater than 100 µM; in the experiment with BT-549 breast it was greater than 100 µM; in the experiment with COLO 205 colon it was 60.1 µM; with T-47D breast, greater than 100 µM. Further, the TGI in the experiment on RXF 393 renal is greater than 100 µM; with RPMI-8226 leukemia, greater than 100 µM; in the experiment with NCI-H522 lung, 75200 nM; with SK-OV-3 ovarian it was greater than 100 µM; in the experiment on LOX IMVI melanoma, greater than 100 µM; in the experiment with NCI-H226 lung it was 95.4 µM. Moreover, in the experiment with NCI-H23 lung, the TGI was greater than 100 µM.

Take `O=C1c2cc3c(cc2CC1Cc1ccc2c(c1)CCC2)CCC3` (configuration not stated): the TGI in the experiment with MDA-N is greater than 100 µM; in the experiment on SF-539 CNS it was greater than 100 µM; in the experiment on MALME-3M melanoma, greater than 100 µM; in the experiment on BT-549 breast, greater than 100 µM; with COLO 205 colon it was 52.2 µM; with T-47D breast it was 63.1 µM. For the same molecule, the TGI with RXF 393 renal is greater than 100 µM; in the experiment with RPMI-8226 leukemia it was greater than 100 µM; in the experiment on NCI-H522 lung, greater than 100000 nM; with SK-OV-3 ovarian, greater than 100 µM; in the experiment on LOX IMVI melanoma, greater than 100 µM; in the experiment with NCI-H226 lung, 65 µM. For the same molecule, the TGI in the experiment with NCI-H23 lung is greater than 100 µM.

Consider `COc1cc(-c2nc3cc(Cl)c(Cl)cc3[nH]2)ccc1OCC(=O)N=Nc1c(O)[nH]c2ccc(Cl)cc12`, for which the GI50 with COLO 205 colon was 344 nM; with T-47D breast it was 381 nM; with RXF 393 renal, 1000 nM; in the experiment with NCI-H522 lung, 386 nM; in the experiment on SK-OV-3 ovarian, 1830 nM; in the experiment on LOX IMVI melanoma, 233 nM. For the same molecule, in the experiment with NCI-H23 lung, the GI50 is 489 nM. Moreover, the TGI in the experiment on COLO 205 colon is 1.22 µM; in the experiment with T-47D breast, 2.37 µM; in the experiment on RXF 393 renal it was 3.4 µM; in the experiment on NCI-H522 lung, 2080 nM; in the experiment with SK-OV-3 ovarian it was 4.57 µM; in the experiment on LOX IMVI melanoma, 0.738 µM. Further, the TGI with NCI-H23 lung was found to be 3.09 µM.

`N#Cc1ccc(C2Oc3ccc(Cl)cc3C=C2[N+](=O)[O-])cc1` (configuration not stated): the TGI was 3.19 µM in the experiment with MDA-N; 3.84 µM in the experiment on SF-539 CNS; 4.79 µM with MALME-3M melanoma; 1.13 µM in the experiment on BT-549 breast; 1.87 µM in the experiment with COLO 205 colon; 9.86 µM with RXF 393 renal. Besides, the TGI with RPMI-8226 leukemia stood at 1.25 µM; in the experiment on NCI-H522 lung it was 2920 nM; with SK-OV-3 ovarian, 5.57 µM; in the experiment with LOX IMVI melanoma, 3.02 µM; with NCI-H226 lung it was 29.6 µM; in the experiment with NCI-H23 lung it was 3.23 µM.

The values are drawn from PubChem BioAssay (NCI).
